In patent US8530680B2, “System and method for controlling growth of microorganisms with brominated furanones” (Syracuse University, priority 2008, dated 2013):

Test system: six fungal strains (Gloeophyllum trabeum, Chaetomium globosum, Trametes versicolor)
Test: Fungal growth on MEA plates with furanone, statements for all six strains
Format: cell-based
Details: 1 to 60 μg/mL
Description: This Example examines the effect of brominated furanones on the growth of fungi associated with damage to building material. Six fungal strains were the subject of these experiments; Gloeophyllum trabeum (strains GT598 and GT599), Chaetomium globosum (wildtype strain and CG572), and Trametes versicolor (strains TV7B2-59 and TV57MAD277). The species were developed on 2% Malt-Extract Agar (MEA) plates and stored inverted at 4° C. The stocks were refreshed by streaking new plates every two months.
The brominated and non-brominated furanones were added to MAE agar plates at different concentrations. The brominated furanones were dissolved in either ethanol (“EtOH”) or methanol (“MeOH”) as stock solutions, as shown in Table 5. The non-brominated furanones were purchased from Sigma (St. Louis, Mo.). The furanone stocks were stored at 4° C.
MAE agar plates containing the same amounts of ethanol/methanol were also prepared as negative controls to eliminate any solvent effects. The plates were prepared using either 90 mm or 60 mm petri dishes and were stored inverted at 4° C. until use.
Different concentrations of furanones were studied to compare their antifungal activities. The plates were inoculated with the six fungal strains using a platinum loop and were incubated upside down at 30° C. for 7 days to monitor the growth. The initial screening was performed using a single 60 μg/mL furanone concentration.

CCCCC1=C(Br)/C(=C/Br)OC1=O [BF1, 4-bromo-5Z-(bromomethylene)-3-butylfuran-2-one]
growth inhibition of the six fungal strains, comparison: effective at preventing growth in low concentrations
